Laboratory results: article PMC8347481, “Germacranolides from Carpesium divaricatum: Some New Data on Cytotoxic and Anti-Inflammatory Activity” (Molecules, 2021)
Read-outs that look alike come from different tables or passages of the source.

Experiments:
PNT2 = test: LDH cell viability assay, normal prostate epithelial cells; type: cell-based, human; details: Homo sapiens, PNT2, 24 h, LDH assay
Procedure: (§1) Normal prostate epithelial cells (PNT2), two prostate cancer cell lines (Du145 and PC3), human keratinocytes (HaCaT), two melanoma cell lines (A375 and HTB140) and two colon cancer cell lines (HT29 and Caco-2) were treated with 3 at a concentration range 1.0–50.0 µg/mL. Viability of the cells was estimated using lactate dehydrogenase (LDH) assay.
(§2) Cytotoxic activity of 3 was tested on human cancer and normal cells, grouped in three panels: prostate, skin and gastrointestinal. The prostate panel comprised prostate cancer cell lines DU145 (ATCC HTB-81) and PC3 (ATCC CRL-1435) and prostate normal epithelial cells PNT2 (ECACC 95012613). Melanoma cell lines A375 (ATCC CRL-1619) and HTB140 (ATCC Hs 294T) together with human keratinocytes HaCaT (obtained as a kind gift of Prof. Marta Michalik, Department of Cell Biology, Jagiellonian University) were included in the skin panel. Two colon cancer cell lines, namely Caco-2 (ATCC HTB-37) and HT29 (ATCC HTB-38), constituted the gastrointestinal panel. Du145 cells were grown in a modified Eagle’s medium with low (1.0 g/L) glucose concentration; HT29, PC3 and PNT-2 cells were grown in Dulbecco’s modified Eagle’s medium (DMEM) and F12 HAM Nutrient Mixture; Caco-2 cells were grown in modified Eagle’s medium with nonessential amino acids (NEAA); and melanoma cells and keratinocytes were maintained in modified Eagle’s medium with high (4.5 g/L) glucose concentration. The culture media contained antibiotics and 10% fetal bovine serum (FBS). All cultures were maintained at 37 °C in a humidified, 5% CO2-containing atmosphere.
(§3) The examined compound (3) was diluted in the culture media from freshly made stock solution in MeOH (10 mg/mL) to the working concentrations (from 0 to 50 μg/mL). Cell viability was determined as described previously. […] Then, the culture medium was replaced with the medium containing different concentrations of the assessed compound (1–50 μg/mL). After 24 h of incubation, the viability of the cells was determined using colorimetric lactate dehydrogenase (LDH) assay in comparison to the controls to which corresponding aliquots of MeOH diluted with culture media were added. Cells grown in the medium without the tested compound were used as control I (negative), and the positive control (control II) was obtained by incubation of the cells in the medium containing 1% Triton X-100. LDH released from the damaged cells into the cell culture medium was quantified by measuring the absorbance at 490 nm using a Synergy II Biotek microplate reader. Cytotoxicities of the examined compounds were calculated as follows: ((absorbance of the tested sample−absorbance of control I)/(absorbance of control II−absorbance of control I)) × 100. Results were means of three independent measurements (± SD). Doxorubicin (Ebewe Pharma G.m.b.H., Unterach, Austria) was used as a reference cytostatic drug.

[1] = as above; type: cell-based, human; details: human, PNT2 normal prostate epithelial cells, 24 h, read-out: Cell Viability (%) ± SD
Procedure: as §1, §2, §3

HepG2 cells = tested on: HepG2 cells; design: method as in PMID 29751555; details: HepG2, cell density 2 × 10^4, 96 h treatment; cited from earlier work
Du145 = test: LDH cell viability assay, prostate cancer cells; type: cell-based; details: Homo sapiens, DU-145; for IC50: Du145, 24 h, LDH assay
Procedure: as §1, §2, §3

PC3 = test: LDH cell viability assay, prostate cancer cells; type: cell-based; details: Homo sapiens, PC-3; for IC50: PC3, 24 h, LDH assay
Procedure: as §1, §2, §3

HTB140 = test: LDH cell viability assay, melanoma cells; type: cell-based; details: Homo sapiens; for IC50: HTB140, 24 h, LDH assay
Procedure: as §1, §2, §3

A375 = test: LDH cell viability assay, melanoma cells; type: cell-based; details: Homo sapiens, A-375; for IC50: A375, 24 h, LDH assay
Procedure: as §1, §2, §3

A459 cells = tested on: A459 cells; design: method as in PMID 29751555; details: cited from earlier work
HT29 = test: LDH cell viability assay, colon cancer cells; type: cell-based; details: Homo sapiens, HT-29; for IC50: HT29, 24 h, LDH assay
Procedure: as §1, §2, §3

Caco-2 = test: LDH cell viability assay, colon cancer cells; type: cell-based; details: Homo sapiens; for IC50: Caco-2, 24 h, LDH assay
Procedure: as §1, §2, §3

[2] = value in parentheses, read-out: IC50 (IC50 µM) (converted)

C=C1C(=O)O[C@H]2[C@H]1[C@@H](O)[C@H](OC(=O)CC(C)C)[C@H](C)CCC(=O)[C@](C)(O)[C@@H]2OC(=O)C(C)C [Compound 3]
IC50 (PNT2; [2]): 35 µM | IC50 (PNT2; read-out: IC50): 16.4 ± 0.4 µg/mL | viability at 24 h, 1 µg/mL ([1]; PNT2, 1 µg/mL): 87.1 ± 1.79% | viability at 24 h, 3 µg/mL ([1]; PNT2, 3 µg/mL): 77.2 ± 1.32% | viability at 24 h, 5 µg/mL ([1]; PNT2, 5 µg/mL): 69.4 ± 0.97% | viability at 24 h, 10 µg/mL ([1]; PNT2, 10 µg/mL): 52.8 ± 2.31% | viability at 24 h, 20 µg/mL ([1]; PNT2, 20 µg/mL): 32.5 ± 1.84% | viability at 24 h, 30 µg/mL ([1]; PNT2, 30 µg/mL): 21.4 ± 0.45% | viability at 24 h, 50 µg/mL ([1]; PNT2, 50 µg/mL): 3.29 ± 1.27% | IC50 (HepG2 cells): 17 µM | viability at 1 µg/mL (Du145; Du145, 1 µg/mL, 24 h, read-out: Cell Viability (%) ± SD): 68.42 ± 0.52% | viability at 3 µg/mL (Du145; Du145, 3 µg/mL, 24 h, read-out: Cell Viability (%) ± SD): 56.3 ± 0.97% | viability at 5 µg/mL (Du145; Du145, 5 µg/mL, 24 h, read-out: Cell Viability (%) ± SD): 44.8 ± 2.05% | viability at 10 µg/mL (Du145; Du145, 10 µg/mL, 24 h, read-out: Cell Viability (%) ± SD): 37.7 ± 2.16% | viability at 20 µg/mL (Du145; Du145, 20 µg/mL, 24 h, read-out: Cell Viability (%) ± SD): 23.6 ± 1.54% | viability at 30 µg/mL (Du145; Du145, 30 µg/mL, 24 h, read-out: Cell Viability (%) ± SD): 12.5 ± 1.94% | viability at 50 µg/mL (Du145; Du145, 50 µg/mL, 24 h, read-out: Cell Viability (%) ± SD): 0.62 ± 0.58% | IC50 (Du145; [2]): 10.8 µM | IC50 (Du145; read-out: IC50): 5.08 ± 1.14 µg/mL | viability at 1 µg/mL (PC3; PC3, 1 µg/mL, 24 h, read-out: Cell Viability (%) ± SD): 78.5 ± 1.08% | viability at 3 µg/mL (PC3; PC3, 3 µg/mL, 24 h, read-out: Cell Viability (%) ± SD): 65 ± 1.46% | viability at 5 µg/mL (PC3; PC3, 5 µg/mL, 24 h, read-out: Cell Viability (%) ± SD): 49.9 ± 2.02% | viability at 10 µg/mL (PC3; PC3, 10 µg/mL, 24 h, read-out: Cell Viability (%) ± SD): 37.2 ± 1.27% | viability at 20 µg/mL (PC3; PC3, 20 µg/mL, 24 h, read-out: Cell Viability (%) ± SD): 29.2 ± 1.89% | viability at 30 µg/mL (PC3; PC3, 30 µg/mL, 24 h, read-out: Cell Viability (%) ± SD): 5.42 ± 2.25% | viability at 50 µg/mL (PC3; PC3, 50 µg/mL, 24 h, read-out: Cell Viability (%) ± SD): 0.65 ± 0.33% | IC50 (PC3; [2]): 19.1 µM | IC50 (PC3; read-out: IC50): 8.92 ± 1.02 µg/mL | viability at 1 µg/mL (HTB140; HTB140, 1 µg/mL, 24 h, read-out: Cell Viability (%) ± SD): 81.4 ± 1.28% | viability at 3 µg/mL (HTB140; HTB140, 3 µg/mL, 24 h, read-out: Cell Viability (%) ± SD): 70.8 ± 2.37% | viability at 5 µg/mL (HTB140; HTB140, 5 µg/mL, 24 h, read-out: Cell Viability (%) ± SD): 50.9 ± 1.8% | viability at 10 µg/mL (HTB140; HTB140, 10 µg/mL, 24 h, read-out: Cell Viability (%) ± SD): 21.5 ± 2.53% | viability at 20 µg/mL (HTB140; HTB140, 20 µg/mL, 24 h, read-out: Cell Viability (%) ± SD): 4.1 ± 1.75% | viability at 30 µg/mL (HTB140; HTB140, 30 µg/mL, 24 h, read-out: Cell Viability (%) ± SD): 0.59 ± 0.78% | viability at 50 µg/mL (HTB140; HTB140, 50 µg/mL, 24 h, read-out: Cell Viability (%) ± SD): 0% | IC50 (HTB140; [2]): 13.6 µM | IC50 (HTB140; read-out: IC50): 6.36 ± 0.38 µg/mL | viability at 1 µg/mL (A375; A375, 1 µg/mL, 24 h, read-out: Cell Viability (%) ± SD): 64.2 ± 1.13% | viability at 3 µg/mL (A375; A375, 3 µg/mL, 24 h, read-out: Cell Viability (%) ± SD): 55.4 ± 1.44% | viability at 5 µg/mL (A375; A375, 5 µg/mL, 24 h, read-out: Cell Viability (%) ± SD): 43.8 ± 1.69% | viability at 10 µg/mL (A375; A375, 10 µg/mL, 24 h, read-out: Cell Viability (%) ± SD): 33 ± 2.3% | viability at 20 µg/mL (A375; A375, 20 µg/mL, 24 h, read-out: Cell Viability (%) ± SD): 7.09 ± 1.78% | viability at 30 µg/mL (A375; A375, 30 µg/mL, 24 h, read-out: Cell Viability (%) ± SD): 0.82 ± 0.65% | viability at 50 µg/mL (A375; A375, 50 µg/mL, 24 h, read-out: Cell Viability (%) ± SD): 0% | IC50 (A375; [2]): 20.4 µM | IC50 (A375; read-out: IC50): 9.57 ± 0.87 µg/mL | Cytotoxicity (A459 cells): resistant | viability at 1 µg/mL (HT29; HT29, 1 µg/mL, 24 h, read-out: Cell Viability (%) ± SD): 69.3 ± 1.75% | viability at 3 µg/mL (HT29; HT29, 3 µg/mL, 24 h, read-out: Cell Viability (%) ± SD): 58 ± 1.66% | viability at 5 µg/mL (HT29; HT29, 5 µg/mL, 24 h, read-out: Cell Viability (%) ± SD): 49.2 ± 2% | viability at 10 µg/mL (HT29; HT29, 10 µg/mL, 24 h, read-out: Cell Viability (%) ± SD): 38 ± 2.29% | viability at 20 µg/mL (HT29; HT29, 20 µg/mL, 24 h, read-out: Cell Viability (%) ± SD): 24.4 ± 1.1% | viability at 30 µg/mL (HT29; HT29, 30 µg/mL, 24 h, read-out: Cell Viability (%) ± SD): 10.4 ± 1.09% | viability at 50 µg/mL (HT29; HT29, 50 µg/mL, 24 h, read-out: Cell Viability (%) ± SD): 0.79 ± 0.78% | IC50 (HT29; [2]): 13.3 µM | IC50 (HT29; read-out: IC50): 6.23 ± 0.89 µg/mL | viability at 1 µg/mL (Caco-2; Caco-2, 1 µg/mL, 24 h, read-out: Cell Viability (%) ± SD): 52.8 ± 1.62% | viability at 3 µg/mL (Caco-2; Caco-2, 3 µg/mL, 24 h, read-out: Cell Viability (%) ± SD): 38.6 ± 2.35% | viability at 5 µg/mL (Caco-2; Caco-2, 5 µg/mL, 24 h, read-out: Cell Viability (%) ± SD): 15.1 ± 2.91% | viability at 10 µg/mL (Caco-2; Caco-2, 10 µg/mL, 24 h, read-out: Cell Viability (%) ± SD): 1.96 ± 2.7% | viability at 20 µg/mL (Caco-2; Caco-2, 20 µg/mL, 24 h, read-out: Cell Viability (%) ± SD): 0.31 ± 0.43% | viability at 30 µg/mL (Caco-2; Caco-2, 30 µg/mL, 24 h, read-out: Cell Viability (%) ± SD): 0% | viability at 50 µg/mL (Caco-2; Caco-2, 50 µg/mL, 24 h, read-out: Cell Viability (%) ± SD): 0% | IC50 (Caco-2; [2]): 8.29 µM | IC50 (Caco-2; read-out: IC50): 3.88 ± 0.1 µg/mL
